Laboratory results as given in ChEMBL document CHEMBL1144279, “Biarylcarboxybenzamide derivatives as potent vanilloid receptor (VR1) antagonistic ligands” (Bioorg Med Chem Lett, 2005).

Columns and labels:
[1] = molecular target: T1, Transient receptor potential cation channel subfamily V member 1 (Rattus norvegicus, UniProt O35433); experiment: In vitro antagonistic activity on VR1 receptor in [Ca2+] influx assay in rat dorsal root ganglion; type: functional, tissue-based
[2] = molecular target: T1, Transient receptor potential cation channel subfamily V member 1; experiment: In vitro agonistic activity on VR1 receptor in [Ca2+] influx assay in rat dorsal root ganglion (NE: not effective at 30 uM); type: functional, tissue-based

T1 sequence (O35433 whole entry): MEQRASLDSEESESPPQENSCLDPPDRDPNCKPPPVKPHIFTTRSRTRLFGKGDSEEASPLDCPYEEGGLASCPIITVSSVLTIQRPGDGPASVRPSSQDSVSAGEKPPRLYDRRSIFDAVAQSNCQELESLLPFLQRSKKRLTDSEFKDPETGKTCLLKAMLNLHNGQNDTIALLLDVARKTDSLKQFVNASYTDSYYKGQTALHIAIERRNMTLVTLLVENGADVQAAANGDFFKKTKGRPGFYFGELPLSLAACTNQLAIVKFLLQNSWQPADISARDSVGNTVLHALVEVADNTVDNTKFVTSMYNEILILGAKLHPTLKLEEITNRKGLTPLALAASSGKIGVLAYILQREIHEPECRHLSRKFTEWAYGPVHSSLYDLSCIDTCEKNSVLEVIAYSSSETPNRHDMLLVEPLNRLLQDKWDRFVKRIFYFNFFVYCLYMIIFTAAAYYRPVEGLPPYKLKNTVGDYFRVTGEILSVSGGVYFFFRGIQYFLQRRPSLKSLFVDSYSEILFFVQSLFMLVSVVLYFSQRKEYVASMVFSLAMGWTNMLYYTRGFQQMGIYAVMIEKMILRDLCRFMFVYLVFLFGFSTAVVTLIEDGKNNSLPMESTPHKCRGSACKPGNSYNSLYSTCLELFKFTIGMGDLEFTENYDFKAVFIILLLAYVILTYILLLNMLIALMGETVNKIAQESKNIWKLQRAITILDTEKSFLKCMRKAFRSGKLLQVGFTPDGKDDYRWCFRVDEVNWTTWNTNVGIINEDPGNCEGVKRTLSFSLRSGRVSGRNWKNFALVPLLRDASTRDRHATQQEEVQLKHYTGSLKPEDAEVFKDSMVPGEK

IC50 [1] [nM] | IC50 [2] | SMILES
2300 | Not Active | Cc1ccc(NC(=O)c2ccc(-c3ccccn3)cc2)cc1
38 | Not Active | CC(C)c1ccc(NC(=O)c2ccc(-c3ccccn3)cc2)cc1
2000 | Not Active | Cc1ccc(NC(=O)c2ccc(-c3ccccn3)cc2)cc1C
55 | Not Active | CC(C)(C)c1ccc(NC(=O)c2ccc(-c3ncccc3Cl)cc2)cc1
> 10000 | Not Active | O=C(Nc1ccccc1)c1ccc(-c2ccccn2)cc1
31 | Not Active | CC(C)(C)c1ccc(NC(=O)c2ccc(-c3ccccn3)cc2)cc1
60 | Not Active | CC(C)(C)c1ccc(NC(=O)c2ccc(-c3ncccn3)cc2)cc1
> 10000 | Not Active | CN(C(=O)c1ccc(-c2ccccn2)cc1)c1ccc(C(C)(C)C)cc1
60 | Not Active | CC(C)(C)c1ccc(NC(=O)c2ccc(-c3ncccc3[N+](=O)[O-])cc2)cc1
150 | Not Active | CC(C)(C)c1ccc(NC(=O)N2CCN(c3ccccn3)CC2)cc1
> 10000 | Not Active | CC(C)(C)c1ccc(NC(=O)c2ccc(-c3cncnc3)cc2)cc1
140 | Not Active | CC(C)(C)c1ccc(NC(=O)c2ccc(-c3ncccc3C(F)(F)F)cc2)cc1
31 | Not Active | Cc1cccnc1-c1ccc(C(=O)Nc2ccc(C(C)(C)C)cc2)cc1
280 | Not Active | CC(C)(C)c1ccc(NC(=O)c2ccc(-c3ccncc3)cc2)cc1
3600 | Not Active | CC(C)(C)c1ccc(NC(=O)c2ccc(-c3ccccc3)cc2)cc1
7900 | Not Active | O=C(Nc1ccc(C(F)(F)F)cc1)c1ccc(-c2ccccn2)cc1
1000 | Not Active | CC(C)(C)c1ccc(NC(=O)c2ccc(-c3cnccn3)cc2)cc1
1300 | Not Active | CC(C)(C)c1ccc(NC(=O)c2ccc(-c3cccnc3)cc2)cc1
